{"source": "patent US20220112149A1", "about": "“DRUG DESIGN METHOD ASSOCIATED WITH NATURAL PRODUCTS, PENTACYCLIC TRITERPENOID COMPOUND, PREPARATION METHOD AND APPLICATIONS THEREOF” (Huazhong Agricultural University, priority 2020, published 2022)", "key": {"[1]": {"system": "ICAM-1 expression in HMEC-1 cells", "experiment": "LPS-induced ICAM-1 expression in HMEC-1 cells, flow cytometry", "assay_type": "cell-based, human", "experimental": "(3) Screening candidate molecules with the strongest ICAM-1 inhibitory activity by simulating the physiological model of inflammation that human microvascular endothelial cells (HMEC-1) expressing cell adhesion molecules (ICAM-1) mediate lymphocytes to penetrate blood vessels to infiltrate the damaged tissues. The specific steps are as follows:\n(§1) 1) Culture of HMEC-1 cells: HMEC-1 cells are cultured in MCDB131 medium (U.S. Sigma) that contain 10% fetal bovine serum (FBS, Zhejiang Tianhang Biotechnology Co., Ltd.), double antibody (100 U/mL penicillin and 100 μg/mL streptomycin), 1 μg/mL hydrocortisone (Sangon Biotech (Shanghai) Co., Ltd.) and 10 ng/mL human recombinant growth factor (hEGF, Sangon Biotech (Shanghai) Co., Ltd.) at 37° C., 5% CO2, and 100% RH.\n2) HMEC-1 cells are inoculated into a 24-well plate, and cultured in a cell incubator at 37° C., 5% CO2, and 100% RH. When the cells grow to 80% abundance, different concentrations of drugs are added for 3 h (1 μM Celastrol as a positive control drug). At the end of treatment, 1 μg/mL LPS is added to activate the NF-κB signaling pathway for 12 hours. After activation, the supernatant medium is discarded, and washed three times with PBS, and 100 μL of 0.25% pancreatin (containing 0.5 mM EDTA) is added to digest in a 37° C. incubator for 3 min. When most of cells are shed, 150 μL of MCDB131 complete medium is added to terminate the digestion, shaken for 3 min, then cells are transferred to a V-shaped 96-well plate (Corning), centrifuged at 4° C., 3000 rpm for 3 min to precipitate cells. Then the supernatant medium is discarded, 100 μL of pH=7.4 buffer A (PBS+0.5% BSA+1 mM MgCl2) is added to each well, to wash once, centrifuged at 4° C., 3000 rpm for 3 min, and the buffer A is aspirated. To each well, 100 μL of PBS solution containing 5% bovine serum albumin is added, and shaken and blocked at 120 rpm for 30 min at room temperature; after blocking, centrifuged at 4° C. and 2000 rpm for 3 min, and the supernatant is discarded, 20 μl of buffer A containing 5 μg/mL of primary antibody anti-ICAM-1 antibody LB-2, shaken and incubated at room temperature at 120 rpm for 1 h, using the buffer A without adding anti-ICAM-1 antibody LB-2 as the negative control. By detecting anti-ICAM-1 fluorescence value by flow cytometry, the expression of ICAM-1 protein in HMEC-1 cells is detected indirectly. Three duplicate wells are established for each concentration. PBS is set as a blank control, 1 uM of Celastrol is set as a positive control, to analyze the inhibitory effect of different concentrations of drugs on the expression level of ICAM-1.\nas §1, with “U/ml” for “U/mL”, “μg/ml” for “μg/mL”, “Biotech)” for “Biotech (Shanghai) Co., Ltd.)”, “ng/ml” for “ng/mL”\nHMEC-1 cells are inoculated into a 24-well plate, and cultured in a cell incubator at 37° C., 5% CO2, and 100% RH. When the cells grow to 80% abundance, different concentrations of drugs are added for 3 h (1 μM Celastrol as a positive control drug). At the end of treatment, 1 μg/mL LPS is added to activate the NF-κB signaling pathway for 12 hours. After activation, the supernatant medium is discarded, and washed three times with PBS, and 100 μL of 0.25% pancreatin (containing 0.5 mM EDTA) is added to digest in a 37° C. incubator for 3 min. When most of cells are shed, 150 μL of MCDB131 complete medium is added to terminate the digestion, shaken for 3 min, then cells are transferred to a V-shaped 96-well plate (Corning), centrifuged at 4° C., 3000 rpm for 3 min to precipitate cells. Then the supernatant medium is discarded, 100 μL of pH=7.4 buffer A (PBS+0.5% BSA+1 mM MgCl2) is added to each well, to wash once, centrifuged at 4° C., 3000 rpm for 3 min, and the buffer A is aspirated. […]"}, "[2]": {"system": "high-fat-induced obese mice", "experiment": "GA-03 in high-fat-induced obese mouse model, intraperitoneal", "assay_type": "in vivo, C57BL/6 mice", "experimental": "Animals are fed with 60% calorie high-fat diets (purchased from Bio-medicine) for 14 consecutive weeks. […] When the blood glucose is greater than 11 mmol/L and the body weight is greater than 42 g, the administration is started. […] The injection volume is […]. In addition, a vehicle (25 μL DMSO) is established. […] Mice in the blank group and GA-02 treatment group underwent pathological anatomy, to observe the changes in organs before and after administration. Samples are taken to prepare pathological sections.\nThe model is constructed by feeding high-fat diets to C57BL/6 male mice for 14 weeks, as shown in FIGS. 22A-22D, obese model mice with a body weight greater than 42 g and blood glucose level higher than 11 mmol/L. Model mice are grouped by blood glucose and body weight. […]"}, "mildly obese mice": {"system": "mildly obese mice", "experiment": "GA-03 in mildly obese mouse model, intraperitoneal", "assay_type": "in vivo, C57BL/6 mice", "settings": "intraperitoneal injection", "experimental": "Animals are fed with common diets (purchased) for 14 consecutive weeks. […] When the body weight is greater than 30 g, the administration is started. […] The injection volume is 25 μL per day."}, "lean mice": {"system": "lean mice", "settings": "mouse, in vivo, ip", "method": "Six-week-old SPF-grade C57BL/6 mice (purchased from Hubei Provincial Center for Disease Control and Prevention) are fed in SPF animal house at a room temperature of 22° C., 4 mice per cage. Animals are fed with common diets (purchased) for 2 consecutive weeks. Mice are free to take food and the padding is changed every two days, and the body weights and blood glucose are monitored every week. When the body weight is greater than 22 g, the administration is started. The drug is dissolved in DMSO solvent and administered by intraperitoneal injection. The injection volume is 25 μL per day. In addition, a vehicle and positive drug control are established. The food intake and body weight changes of mice in each group are measured every day. On Days 1 and 21, the blood routine and blood biochemical parameters are monitored. At the same time, the glucose tolerance test (GTT) and insulin tolerance test (ITT) are carried out."}, "[3]": {"system": "NF-κB signaling in HEK293 cells", "experiment": "NF-κB luciferase reporter gene system", "assay_type": "cell-based", "settings": "Homo sapiens, HEK293, read-out: inhibition of the fluorescence signal (NF-κB luciferase reporter)", "experimental": "FIGS. 10A-10C show the inhibition verification effect chart of GA-02 in Example 5, where FIG. 10A: GA-02 inhibited LPS-induced ICAM-1 expression activity. The inflammatory pathway of HMEC-1 cell was activated by 1 μg/mL LPS, to determine the effect of Celastrol and GA-02 on the expression of ICAM-1 induced by LPS. FIG. 10B: The effect of GA-02 on NF-κB signaling. The NF-κB luciferase reporter plasmid was used to transfect HEK293 cells, and the effects of Celastrol and GA-02 on the NF-κB activity induced by TNF-α were determined; FIG. 10C: qRT-PCR was used to detect mRNA relative expressions of IL-1β, TNF-α, IL-6 and MCP-1.\nICAM-1 is a downstream effector molecule regulated by NF-κB signaling pathway, and NF-κB plays an important role in regulating the expression of ICAM-1 gene. Celastrol can inhibit the activation of the LPS-induced IKK/NF-κB signaling pathway. In order to validate that GA-02 functions through the IKK/NF-κB signaling pathway, we constructed an NF-κB luciferase reporter gene system to validate the inhibitory activity of Celastrol and GA-02 on the luciferase reporter gene. […] In addition, both Celastrol and GA-02 could down-regulate the mRNA transcription levels of inflammatory factors IL-1β, TNF-α, IL-6 and MCP-1 activated by LPS."}, "mice": {"system": "mice", "settings": "cited from earlier work"}, "[4]": {"settings": "in vivo; cited from earlier work"}, "normal rats": {"system": "normal rats", "settings": "cited from earlier work"}, "[5]": {"system": "mice with hereditary diabetes", "settings": "cited from earlier work"}, "[6]": {"settings": "high-dose (8 mg/kg) i.p., second day"}, "[7]": {"settings": "high-dose (8 mg/kg) i.p., third day"}, "[8]": {"settings": "low-, medium- and high-dose (2, 4, 8 mg/kg) i.p."}}, "data": [{"compound": "11-dicarbonyl-12-ene-2α,3β-dihydroxy-oleanane [GA-03]", "values": [{"measurement": "anti-inflammatory activity compared with reference compounds", "setting": "[1]", "value": "basically equivalent to that of GA-02 and superior to 18β-glycyrrhetinic acid"}, {"measurement": "body weight reduced by", "setting": "[2]; high dose 8 mg/kg i.p., three weeks", "value": "33.80±2.95", "unit": "%"}, {"measurement": "body weight after three weeks of administration", "setting": "[2]; high dose 8 mg/kg i.p., from 47.49±0.97 g", "value": "31.45 ± 1.81", "unit": "g"}, {"measurement": "liver function indexes AST and ALT vs vehicle control group", "setting": "[2]; high-dose (8 mg/kg) i.p.", "value": "significantly lower"}, {"measurement": "average daily food intake", "setting": "[2]; high-dose (8 mg/kg) i.p., first day of administration, day 0: 3.14±0.40 g", "value": "0.65 ± 0.02", "unit": "g"}, {"measurement": "body weight", "setting": "[2]; high-dose (8 mg/kg) i.p., first day, from 47.49±0.97 g", "value": "46.18 ± 0.95", "unit": "g"}, {"measurement": "average daily food intake", "setting": "[2]; [6]", "value": "0.57 ± 0.01", "unit": "g"}, {"measurement": "body weight", "setting": "[2]; [6]", "value": "44.74 ± 0.76", "unit": "g"}, {"measurement": "average daily food intake", "setting": "[2]; [7]", "value": "0.66 ± 0.06", "unit": "g"}, {"measurement": "body weight", "setting": "[2]; [7]", "value": "43.13 ± 0.65", "unit": "g"}, {"measurement": "lipid droplets in the liver (oil red O and H&E staining)", "setting": "[2]; high-dose (8 mg/kg) i.p., three weeks", "value": "completely disappeared"}, {"measurement": "effect on appetite suppression and weight reduction", "setting": "[2]; intraperitoneal injection, obese mice", "value": "strong effect"}, {"measurement": "body weight reduced by", "setting": "[2]; low dose 2 mg/kg i.p., three weeks", "value": "20.40±1.89", "unit": "%"}, {"measurement": "body weight after three weeks of administration", "setting": "[2]; low dose 2 mg/kg i.p., from 47.11±1.32 g", "value": "37.49 ± 1.28", "unit": "g"}, {"measurement": "fasting blood glucose levels", "setting": "[2]; [8]", "value": "reduce to a normal level"}, {"measurement": "weights of liver and epididymal fat compared to the vehicle control group", "setting": "[2]; [8]", "value": "decrease in a dose-dependent manner"}, {"measurement": "blood glucose tolerance (GTT) and insulin tolerance (ITT)", "setting": "[2]; low-, medium- and high-dose groups, i.p.", "value": "significantly improved"}, {"measurement": "body weight reduced by", "setting": "[2]; medium dose 4 mg/kg i.p., three weeks", "value": "27.63±3.39", "unit": "%"}, {"measurement": "body weight after three weeks of administration", "setting": "[2]; medium dose 4 mg/kg i.p., from 46.94±1.41 g", "value": "33.99 ± 2.30", "unit": "g"}, {"measurement": "effect on appetite suppression and weight reduction", "setting": "mildly obese mice", "value": "obvious effect"}, {"measurement": "effect on the food intake and body weight", "setting": "lean mice", "value": "no effect"}]}, {"compound": "CC1(C)[C@@H](O)CC[C@]2(C)[C@H]3C(=O)C=C4[C@@H]5C[C@@](C)(C(=O)O)CC[C@]5(C)CC[C@@]4(C)[C@]3(C)CC[C@@H]12", "note": "[18-β-glycyrrhetinic acid, reference compound]", "values": [{"measurement": "ICAM-1 inhibitory activity among the candidate triterpene natural products", "setting": "[1]; HMEC-1, 1 μg/mL LPS, FIG. 3", "value": "best ICAM-1 inhibitory activity"}]}, {"compound": "CC1=C(O)C(=O)C=C2C1=CC=C1[C@@]2(C)CC[C@@]2(C)[C@@H]3C[C@](C)(C(=O)O)CC[C@]3(C)CC[C@]12C", "note": "[Celastrol]", "values": [{"measurement": "inhibition at 1 µM", "setting": "[3]", "value": 70, "unit": "%"}, {"measurement": "toxicity to the brains, hearts and livers", "setting": "mice; dose of 1 mg/kg", "value": "serious toxicity"}, {"measurement": "lethality rate", "setting": "mice; dose of 4 mg/kg", "value": 40, "unit": "%"}, {"measurement": "bioavailability", "setting": "[4]", "value": 17.06, "unit": "%"}]}, {"compound": "C[C@H]1[C@H](C)CC[C@]2(C(=O)O)CC[C@]3(C)C(=CC[C@@H]4[C@@]5(C)C[C@@H](O)[C@H](O)C(C)(C)[C@@H]5CC[C@]43C)[C@H]12", "note": "[corosolic acid]", "values": [{"measurement": "blood glucose lowering", "setting": "normal rats", "value": "significant effect of lowering blood glucose"}, {"measurement": "blood glucose lowering", "setting": "[5]", "value": "significant effect of lowering blood glucose"}]}]}
